Earlier results as cited in patent publication US20070213354A1, “Compositions and Methods for the Treatment of Multiple Sclerosis” (AmpliMed Corporation, priority 2006, published 2007).

Tests used:
neonatal rat myocytes = details: 1 hour drug concentration that reduces ATP/protein ratio to 50% of untreated control myocytes; read-out: IC50 Cardiotox; cited from earlier work
L1210 resistant = details: murine leukemia L1210 resistant, P-glycoprotein producing; MTT, continuous exposure; cited from earlier work
L1210 sensitive = details: murine leukemia L1210 sensitive to standard cytotoxic agents; MTT, continuous exposure; cited from earlier work

SMILES	IC50 (neonatal rat myocytes) [nM]	IC50 (L1210 resistant) [nM]	IC50 (L1210 sensitive) [nM]
CN(C)CCN1C(=O)c2cccc3cc4c([N+](=O)[O-])cccc4c(c23)C1=O [*8-NO2]	650	20	50
COc1ccc2c3c(c4ccccc4cc13)C(=O)N(CCN(C)C)C2=O [*6-OCH3]	799	4	3
CCN1CCCC(N2C(=O)c3cccc4cc5ccccc5c(c34)C2=O)C1 (stereo not drawn) [2-(1-ethyl-3-piperidinyl)]	8760	609	635
O=C1c2cccc3cc4ccccc4c(c23)C(=O)N1Cc1cccnc1 [2-CH2-3-pyridyl]	> 25000	2670	1870
CCCOc1c2ccccc2c2c3c(cccc13)C(=O)N(CCN(C)C)C2=O [*6-OC3H7]	7760	49	17
CN(C)CCN1C(=O)c2ccc(O)c3cc4ccccc4c(c23)C1=O [*6-OH]	> 24100	145	217
CN(C)CCN1C(=O)c2ccc(Cl)c3cc4ccccc4c(c23)C1=O [*6-Cl]	4110	64	77
CN(C)CCN1C(=O)c2cccc3c(N)c4ccccc4c(c23)C1=O [*7-NH2]	1950	7	5
CN(C)CCN1C(=O)c2cccc3cc4c(O)cccc4c(c23)C1=O [*8-OH]	2950	67	108
CN(C)CCN1C(=O)c2cccc3cc4ccc(I)cc4c(c23)C1=O [*10-I]	4790	52	312
CN(C)CCN1C(=O)c2cccc3cc4cc(Cl)ccc4c(c23)C1=O [*9-Cl]	1540	8	8
O=C1c2cccc3cc4ccccc4c(c23)C(=O)N1CCc1ccccn1 [2-(CH2)2-2-pyridyl]	> 25000	15500	6440
CN(C)CCN1C(=O)c2cccc3c(Cl)c4ccccc4c(c23)C1=O [*7-Cl]	10800	206	154
CN(C)CCN1C(=O)c2cccc3cc4ccccc4c(c23)C1=O [2-(CH2)2N(CH3)2]	1980	7	7
CC(=O)Nc1ccc2c3c4c(cccc4cc2c1)C(=O)N(CCN(C)C)C3=O [*9-NHCOCH3]	487	170	114
CCN1CCCC1CN1C(=O)c2cccc3cc4ccccc4c(c23)C1=O (stereo not drawn) [2-CH2-(1-ethyl-2-pyrrolidinyl)]	15200	55	36
CSc1c2ccccc2c2c3c(cccc13)C(=O)N(CCN(C)C)C2=O [*7-SCH3]	> 50000	1220	6250
CN(C)CCN1C(=O)c2cccc3cc4cccc(Cl)c4c(c23)C1=O [*11-Cl]	8230	617	1780
CN(C)CCN1C(=O)c2cccc3cc4ccc(NC(=O)C(C)(C)C)cc4c(c23)C1=O [*10-NHCOC(CH3)3]	11000	200	200
COc1cccc2c1C(=O)c1c(O)c3c(c(O)c1C2=O)C[C@@](O)(C(=O)CO)C[C@@H]3O[C@H]1C[C@H](N)[C@H](O)[C@H](C)O1 [Doxorubicin, reference compound]	10200	3880	35
CC(=O)Nc1cc2c3c(c4ccccc4cc3c1)C(=O)N(CCN(C)C)C2=O [*5-NHCOCH3]	177	73	19
CCOc1ccc2cc3cccc4c3c(c2c1)C(=O)N(CCN(C)C)C4=O [*10-OC2H5]	11300	50	25
CNCCN1C(=O)c2cccc3cc4ccccc4c(c23)C1=O [2-(CH2)2NHCH3]	7060	21	10
CN(C)CCNc1c2ccccc2c2c3c(cccc13)C(=O)N(CCN(C)C)C2=O [*7-NH(CH2)2N(CH3)2]	291000	524	524
O=C1c2cccc3cc4ccccc4c(c23)C(=O)N1Cc1ccccn1 [2-CH2-2-pyridyl]	> 25000	26700	26700
CN(C)CCN1C(=O)c2c(N)ccc3cc4ccccc4c(c23)C1=O [*4-NH2]	434	8	5
O=C1c2cccc3cc4ccccc4c(c23)C(=O)N1CCN1CCOCC1 [2-(CH2)2—N-morpholinyl]	> 25000	512	512
O=C1c2cccc3cc4ccccc4c(c23)C(=O)N1c1cccnc1 [2-(3-pyridyl)]	> 25000	554	544
CN(C)CCN1C(=O)c2cccc3cc4cc(N)ccc4c(c23)C1=O [*9-NH2]	813	16	3
CN(C)CCN1C(=O)c2cccc3cc4ccc(Cl)cc4c(c23)C1=O [*10-Cl]	771	8	5
